Tests used:
[1] = tested on: KPC mice; assay: KPC mice, PanIN progression and cancer formation after intravenous treatment; assay type: in vivo
Procedure: FIGS. 13A-13D are graphs showing that (11R)-71-85 inhibits PanIN and cancer formation in KPC mice. (FIG. 13A) KPC mice were sub-lethally irradiated at 6 weeks of age and packed with 10×10^6 hematopoietic bone marrow cells and the survival was monitored (n=5 per group; *p<0.05, Log-rank test). (FIG. 13B) Quantification of normal ducts and PanIN of KPC mice treated as in (A) (n=6 per group). (FIG. 13C) CD4^+ T cells infiltrated in the pancreas were analyzed for TNFα and IFNγ expression by flow cytometry after treatment with (11R) 71-85 or (11R) Scr. Bar graphs show the average percentage of indicated cytokine secreting cells. (n=8 per group; *p<0.05, NS=not significant, unpaired two-tailed Student's t-test). (FIG. 13D) KPC mice were treated as in (A) and the expression of different tumor promoting factors was analyzed in isolated pancreatic epithelial cells by quantitative real-time PCR (n=6 per group).
KPC mice provide a genetic model of murine pancreatic tumors that closely mimics the human disease. KPC (KrasG12D/^+; LSLTrp53R172H/^+; Pdx-1-Cre) mice express K-ras in pancreatic epithelium, and when made heterozygous for p53, develop spontaneous tumors starting at approximately 8-10 weeks of age (Hingorani et al., Cancer Cell 7(5):469-483, 2005). This involves the formation of pancreatic intraepithelial neoplasia precursor lesions (PanIN) and progression to fully-developed carcinoma with surrounding stromal and inflammatory reactions (Hingorani et al., Cancer Cell 7(5):469-483, 2005).
Given these findings, further experiments were conducted to determine if inhibition of the alternative pathway in KPC mice would alter disease progression. KPC mice were treated with intravenous (11R)-71-85 or (11R)-Scrambled starting at 9 weeks of age, and the pancreas was histologically evaluated 3.5 weeks later. Thirty-three percent (2 of 6) of mice treated with (11R)-Scrambled developed invasive carcinoma in the pancreas. […] In line with the reduced TNFα secretion, Irf4 mRNA expression was decreased in CD4^+ TILs after (11R)-71-85 treatment. […] The fact that early stage PanIN formation was present, but later pre-invasive stages were reduced, in (11R)-71-85-treated mice supports a role for T cell-derived TNFα in the progression of PanIN towards invasive carcinoma.

[2] = tested on: T cells; assay: Inflammatory cytokine production by T cells (flow cytometry); assay type: cell-based
Text: FIGS. 4A-4B are a series flow cytometry plots showing inflammatory cytokine secretion by CD4^+ (FIG. 4A) and CD8^+ (FIG. 4B) T cells. T cells were purified from spleen and stimulated with anti-CD3 plus anti-CD28 for 3 days. Cells were then left unstimulated overnight and treated with the indicated concentrations of (11R)-71-85, control peptide (11R)-Ctrl, or DMSO (no peptide). After treatment, cells were restimulated with either anti-CD3 plus anti-CD28, or PMA plus ionomycin supplemented with monensin. Cytokine expression was measured by flow-cytometry.
To evaluate cytokine production, T cells were purified from spleen and stimulated with anti-CD3 plus anti-CD28 for 3 days. Cells were then left unstimulated overnight and treated with 1 or 2 μM (11R)-71-85 or control peptide (11R)-Ctrl, or with DMSO only. After treatment, cells were restimulated with either anti-CD3 plus anti-CD28 (to stimulate the TCR and the alternative p38 pathway), or PMA plus ionomycin supplemented with monensin (to stimulate the classical p38 pathway). Cytokine expression was measured by flow-cytometry.

[3] = tested on: tumor-infiltrating T cells; assay: PANC02 model, cytokine expression of tumor infiltrating cells; assay type: in vivo, mice; conditions: 80 μg intra-tumor every other day for 1 week
Procedure: WT C57BL/6 mice were injected with 7.5×10^5 PANC02 cells. After 16 days, mice were injected with 80 μg of either (11R)-71-85 or (11R)-Scrambled (Scr) every other day for 1 week. Twenty-four hours after the last intra-tumor injection, tumor infiltrating cells were harvested and restimulated with PMA and ionomycin, or left unstimulated, in the presence of Golgi inhibitor for 4 hours. Expression of cytokines (IL-17A and TNFα—FIG. 10A; IL-10 and IFNγ—FIG. 10B) was determined by flow cytometry.
The effect of intra-tumor injection of (11R)-71-85 on cytokine secretion from tumor-infiltrating T cells was also evaluated in mice with pancreatic tumors. WT C57BL/6 mice were injected with 7.5×10^5 PANC02 cells and 16 days later mice received intra-tumor injections of 80 μg of (11R)-71-85 or (11R)-Scrambled every other day for 1 week. Twenty-four hours following the last injection, tumor infiltrating cells were harvested and restimulated with PMA and ionomycin, or left unstimulated, in the presence of Golgi inhibitor for 4 hours. Expression of TNF-α, IFNγ, IL-10 and IL-17 was determined by flow cytometry. […] There was no difference in TNF-α secretion after restimulation, which bypasses TCR signaling and activates the classical MAPK cascade. There was no difference between unstimulated and restimulated cells for the other cytokines tested (IFNγ, IL-10, and IL-17; FIGS. 10A-10B).

[4] = tested on: p38 (alternative activation pathway); assay: In vitro kinase assay: ATF2 phosphorylation by Zap70-activated p38; assay type: biochemical; conditions: (11R)-71-85 0.2-4.0 μg, (11R)-Ctrl 4.0 μg; 30 minutes at 30° C.; p38 activated with Zap70
Procedure: Purified p38 proteins were activated by incubating with active Zap70 in kinase buffer for 1 hour. (11R)-71-85 or (11R)-Ctrl was then added and incubated for 30 minutes at 30° C. One μg ATF2 and 10 μCi [^32P]ATP were then added and incubated for 45 minutes at 30° C. Phosphorylated products were resolved by SDS-PAGE, transferred to nitrocellulose membranes, and visualized by phosphorimager.
To test whether (11R)-71-85 can inhibit the alternative p38 activation pathway in vitro, an assay was performed to detect phosphorylation of activating transcription factor 2 (ATF2), a target of activated p38, in the presence and absence of (11R)-71-85. Purified p38 proteins were activated by incubation with active Zap70 in kinase buffer for 1 hour. (11R)-71-85 (0.2, 0.5, 1.0, 2.0 or 4.0 μg) or (11R)-Ctrl (4.0 μg) was then added and incubated for 30 minutes at 30° C. One μg ATF2 and 10 μCi [^32P]ATP were added and incubated for 45 minutes at 30° C. Phosphorylated products were resolved by SDS-PAGE, transferred to nitrocellulose membranes, and visualized by phosphorimager. […] In addition, the decrease in ATF2 phosphorylation was dependent on the dose of (11R)-71-85.

[5] = intravenous, compared to control

phosphorylation of ATF2 [4]: decrease in phosphorylation of ATF2
Substance: (11R)-71-85: fusion protein: 11 arginine residues added to the N-terminus of the Gadd45α 71-85 peptide (LQIHFTLIQAFCCEN; N-terminal 11 arginine; UniProt P24522 71-85, looked up, fragment)
Irf4 mRNA expression in CD4+ TILs ([1]; intravenous): decreased
progression towards high grade PanIN formation (PanIN3, carcinoma in situ) ([1]; intravenous from 9 weeks of age, 3.5 weeks): slowed
mice that developed invasive carcinoma in the pancreas ([1]; intravenous from 9 weeks of age, histology 3.5 weeks later): no mice
intrapancreatic fibro-inflammatory reaction (H&E) ([1]; intravenous, compared to (11R)-Scrambled): reduced
CD4+ tumor infiltrating lymphocytes expressing TNFα [1, 5]: reduced numbers
expression of IFNγ in CD4+ tumor infiltrating lymphocytes [1, 5]: slightly reduced
expression of Cc12 in pancreatic epithelial cells ([1]; quantitative real-time PCR): reduced
expression of Cc15 in pancreatic epithelial cells ([1]; quantitative real-time PCR): reduced
expression of Tgfβ in pancreatic epithelial cells ([1]; quantitative real-time PCR): reduced
expression of Vegf in pancreatic epithelial cells ([1]; quantitative real-time PCR): reduced
inhibition of production of TNF-α and IFN-γ, 2 μM compared with 1 μM ([2]; 2 μM versus 1 μM): to a greater extent
cytokine production in response to PMA plus ionomycin ([2]; 1 or 2 μM, restimulated with PMA plus ionomycin): no significant effect
production of TNF-α in response to TCR stimulation ([2]; 1 or 2 μM, restimulated with anti-CD3 plus anti-CD28): inhibits
expression of the other cytokines tested (IFNγ, IL-10, and IL-17) ([3]; unstimulated and restimulated cells): no difference
TNF-α secretion after restimulation with PMA and ionomycin ([3]; versus (11R)-Scrambled): no difference
TNF-α secretion, unstimulated tumor infiltrating cells ([3]; versus (11R)-Scrambled): reduced

Source: patent publication US9359418B2, “Inhibitors of the T cell-specific alternative p38 activation pathway and methods of use” (The United States of America, as represented by the …, priority 2012, dated 2016)
